From patent publication US11180462B2, “Microbiocidal oxadiazole derivatives” (SYNGENTA PARTICIPATIONS AG, priority 2015, dated 2021)

Legend:
[1] = tested on: Puccinia recondita f. Sp. Tritici; assay: Fungicidal activity against Puccinia recondita f. sp. tritici / wheat / leaf disc curative (brown rust); type: in vivo; details: foliar, 24 h, 200 ppm in the applied formulation, wheat leaf segments, curative (applied 1 day after inoculation), compared to untreated control leaf disks, read-out: disease control
How it was run: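 Curative test on wheat leaf segments (cv. Kanzler) on agar, inoculated with spore suspension and held dark at 19° C, 75% RH; formulated compound in water applied 1 day after inoculation. Incubated at 19° C, 75% RH, 12 h light/12 h dark; percent disease control versus untreated scored 6 to 8 days after application.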

[2] = tested on: Phakopsora Pachyrhizi; assay: Fungicidal activity against Phakopsora pachyrhizi / soybean / leaf disc preventative (Asian soybean rust); type: in vivo; details: foliar, 200 ppm in the applied formulation, soybean leaf disks, compared to untreated control leaf disks, read-out: disease control
How it was run: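 Scored 12 to 14 days post-application as percent control relative to untreated check discs, rust spores were sprayed under the disc one day after compound treatment. Incubation: 20°C, 75% rh, first 24–36 h in darkness, then 12 h daily light; discs kept on water agar.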

[3] = tested on: Puccinia recondita f. Sp. Tritici; assay: Fungicidal activity against Puccinia recondita f. sp. tritici / wheat / leaf disc preventative (brown rust); type: in vivo; details: foliar, 200 ppm in the applied formulation, wheat leaf segments, preventative, compared to untreated control leaf disks, read-out: disease control
How it was run: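 200 ppm spray on wheat cv. Kanzler leaf segments; spore inoculation +1 day; 19° C., 75% rh, 12 h/12 h light cycle; single rating of % control vs untreated at 7 to 9 days.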

[4] = tested on: Glomerella lagenarium (Colletotrichum lagenarium); assay: Fungicidal activity against Glomerella lagenarium (Colletotrichum lagenarium) liquid culture / cucumber / preventative (anthracnose); type: cell-based; details: Colletotrichum orbiculare; 20 ppm in the applied formulation; liquid culture (PDB), growth inhibition measured photometrically after 3 to 4 days; compared to untreated control; read-out: disease control
How it was run: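 Percent activity against the untreated check was derived from photometric growth measurements made 2 to 7 days after conidia in potato dextrose broth were combined with compound at 20 ppm. Cultures were kept dark at 24 °C and 96% humidity.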

Row | Compound | melting point [°C] | pest or weed control at 200 ppm [1] [%] | pest or weed control at 200 ppm [2] [%] | pest or weed control at 200 ppm [3] [%] | inhibition of growth at 20 ppm [4] [%]
1 | COC(=O)N(O)Cc1ccc(-c2noc(C(F)(F)F)n2)cc1 [Compound 2.24, methyl N-hydroxy-N-[[4-[5-(trifluoromethyl)-1,2,4-oxadiazol-3-yl]phenyl]methyl]-carbamate] | 73 to 75.1 | ≥ 80 | ≥ 80 | ≥ 80 | ≥ 80
2 | CON(Cc1ccc(-c2noc(C(F)(F)F)n2)cc1)C(=O)NCC1CC1 [Compound 3.6, 3-(cyclopropylmethyl)-1-methoxy-1-[[4-[5-(trifluoromethyl)-1,2,4-oxadiazol-3-yl]phenyl]methyl]urea] | 77 to 81.4 | ≥ 80 | ≥ 80 | ≥ 80 | ≥ 80
3 | CON(Cc1ccc(-c2noc(C(F)(F)F)n2)cc1)C(=O)NC1CC1 [Compound 3.14, 3-cyclopropyl-1-methoxy-1-[[4-[5-(trifluoromethyl)-1,2,4-oxadiazol-3-yl]phenyl]methyl]urea] | 84 to 87 | ≥ 80 | ≥ 80 | ≥ 80 | ≥ 80
4 | CCONC(=O)N(Cc1ccc(-c2noc(C(F)(F)F)n2)cc1)OC [Compound 3.18, 3-ethoxy-1-methoxy-1-[[4-[5-(trifluoromethyl)-1,2,4-oxadiazol-3-yl]phenyl]methyl]urea] | 107 to 110 | ≥ 80 | ≥ 80 | ≥ 80 | ≥ 80
5 | CON(C)C(=O)N(O)Cc1ccc(-c2noc(C(F)(F)F)n2)cc1 [Compound 3.29, 1-hydroxy-3-methoxy-3-methyl-1-[[4-[5-(trifluoromethyl)-1,2,4-oxadiazol-3-yl]phenyl]methyl]urea] | 96.3 to 100.5 | ≥ 80 | ≥ 80 | ≥ 80 | ≥ 80
6 | CON(C)C(=O)N(C)C(C#N)c1ccc(-c2noc(C(F)(F)F)n2)cc1 (stereo not drawn) [Compound 3.31, 1-[cyano-[4-[5-(trifluoromethyl)-1,2,4-oxadiazol-3-yl]phenyl]methyl]-3-methoxy-1,3-dimethyl-urea] | 106 to 107 | ≥ 80 | ≥ 80 | ≥ 80 | ≥ 80
7 | CON(Cc1ccc(-c2noc(C(F)(F)F)n2)cc1)C(=O)N[C@@H](C)C1CC1 [Compound 3.41, 3-[(1S)-1-cyclopropylethyl]-1-methoxy-1-[[4-[5-(trifluoromethyl)-1,2,4-oxadiazol-3-yl]phenyl]methyl]urea] | 99 to 102 | ≥ 80 | ≥ 80 | ≥ 80 | ≥ 80
8 | CON(Cc1ccc(-c2noc(C(F)(F)F)n2)cc1)C(=O)NC(C)C [Compound 3.42, 3-isopropyl-1-methoxy-1-[[4-[5-(trifluoromethyl)-1,2,4-oxadiazol-3-yl]phenyl]methyl]urea] | 106 to 107.3 | ≥ 80 | ≥ 80 | ≥ 80 | ≥ 80
9 | CCOC(=O)C1(NC(=O)N(Cc2ccc(-c3noc(C(F)(F)F)n3)cc2)OC)CC1 [Compound 3.48, ethyl 1-[[methoxy-[[4-[5-(trifluoromethyl)-1,2,4-oxadiazol-3-yl]phenyl]methyl]-carbamoyl]amino]-cyclopropanecarboxylate] | 93 to 97 | ≥ 80 | ≥ 80 | ≥ 80 | ≥ 80
10 | CON(Cc1ccc(-c2noc(C(F)(F)F)n2)cc1)C(=O)NC1COC1 [Compound 3.55, 1-methoxy-3-(oxetan-3-yl)-1-[[4-[5-(trifluoromethyl)-1,2,4-oxadiazol-3-yl]phenyl]methyl]urea] | 97 to 100 | ≥ 80 | ≥ 80 | ≥ 80 | ≥ 80

The next lines start with results.

Row | melting point [°C] | Compound | pest or weed control at 200 ppm [1] [%] | pest or weed control at 200 ppm [2] [%] | pest or weed control at 200 ppm [3] [%] | inhibition of growth at 20 ppm [4] [%]
11 | 75 to 76 | CCC(=O)N(C)C(C#N)c1ccc(-c2noc(C(F)(F)F)n2)cc1 (stereo not drawn) [Compound 1.611, N-[cyano-[4-[5-(trifluoromethyl)-1,2,4-oxadiazol-3-yl]phenyl]methyl]-N-methyl-propanamide] | ≥ 80 | ≥ 80 | ≥ 80 | ≥ 80
12 | 74 to 77 | CON(C)C(=O)N(Cc1ccc(-c2noc(C(F)(F)F)n2)cc1)OC [Compound 3.3, 1,3-dimethoxy-1-methyl-3-[[4-[5-(trifluoromethyl)-1,2,4-oxadiazol-3-yl]phenyl]methyl]urea] | ≥ 80 | ≥ 80 | ≥ 80 | ≥ 80
13 | 112.2 to 114.7 | CON(Cc1ccc(-c2noc(C(F)(F)F)n2)cc1)C(N)=O [Compound 3.32, 1-methoxy-1-[[4-[5-(trifluoromethyl)-1,2,4-oxadiazol-3-yl]phenyl]methyl]urea] | ≥ 80 | ≥ 80 | ≥ 80 | ≥ 80
14 | 95 to 98 | CNC(=O)N(C)Cc1ccc(-c2noc(C(F)(F)F)n2)cc1 [Compound 3.37, 1,3-dimethyl-1-[[4-[5-(trifluoromethyl)-1,2,4-oxadiazol-3-yl]phenyl]methyl]urea] | ≥ 80 | ≥ 80 | ≥ 80 | ≥ 80
15 | 95 to 98 | CON(Cc1ccc(-c2noc(C(F)(F)F)n2)cc1)C(=O)NCC(F)(F)F [Compound 3.38, 1-methoxy-3-(2,2,2-trifluoroethyl)-1-[[4-[5-(trifluoromethyl)-1,2,4-oxadiazol-3-yl]phenyl]methyl]urea] | ≥ 80 | ≥ 80 | ≥ 80 | ≥ 80
16 | 155 to 158 | CON(Cc1ccc(-c2noc(C(F)(F)F)n2)cc1)C(=O)NCC#N [Compound 3.39, 3-(cyanomethyl)-1-methoxy-1-[[4-[5-(trifluoromethyl)-1,2,4-oxadiazol-3-yl]phenyl]methyl]urea] | ≥ 80 | ≥ 80 | ≥ 80 | ≥ 80
17 | 88.9 to 90.6 | C#CCNC(=O)N(Cc1ccc(-c2noc(C(F)(F)F)n2)cc1)OC [Compound 3.43, 1-methoxy-3-prop-2-ynyl-1-[[4-[5-(trifluoromethyl)-1,2,4-oxadiazol-3-yl]phenyl]methyl]urea] | ≥ 80 | ≥ 80 | ≥ 80 | ≥ 80
18 | 93 to 97 | CON(Cc1ccc(-c2noc(C(F)(F)F)n2)cc1)C(=O)NC1(C)CC1 [Compound 3.46, 1-methoxy-3-(1-methylcyclopropyl)-1-[[4-[5-(trifluoromethyl)-1,2,4-oxadiazol-3-yl]phenyl]methyl]urea] | ≥ 80 | ≥ 80 | ≥ 80 | ≥ 80
19 | 106 to 109 | CON(Cc1ccc(-c2noc(C(F)(F)F)n2)cc1)C(=O)NC1(C#N)CC1 [Compound 3.47, 3-(1-cyanocyclopropyl)-1-methoxy-1-[[4-[5-(trifluoromethyl)-1,2,4-oxadiazol-3-yl]phenyl]methyl]urea] | ≥ 80 | ≥ 80 | ≥ 80 | ≥ 80
20 | 98 to 101 | CON(Cc1ccc(-c2noc(C(F)(F)F)n2)cc1)C(=O)NCC(=O)N(C)C [Compound 3.51, 2-[[methoxy-[[4-[5-(trifluoromethyl)-1,2,4-oxadiazol-3-yl]phenyl]methyl]-carbamoyl]amino]-N,N-dimethyl-acetamide] | ≥ 80 | ≥ 80 | ≥ 80 | ≥ 80
21 | 113 to 121 | CN(Cc1ccc(-c2noc(C(F)(F)F)n2)cc1)C(=O)NC1CC1 [Compound 3.56, 3-cyclopropyl-1-methyl-1-[[4-[5-(trifluoromethyl)-1,2,4-oxadiazol-3-yl]phenyl]methyl]urea] | ≥ 80 | ≥ 80 | ≥ 80 | ≥ 80
